Experimental data from US8084484B2, “Vanilloid receptor ligands, pharmaceutical compositions containing them, process for making them, and use thereof for treating pain and other conditions” (Gruenenthal GmbH, priority 2007, dated 2011).

How the values were obtained:
male mice (NMRI) = assay: Formaldehyde test in mice; assay type: in vivo; settings: 0.3 per os (dose unit not given), second phase
Procedure: III. b. Formaldehyde Test in Mice
The investigation for determining the antinociceptive action of the compounds according to the invention is performed using the formaldehyde test on male mice (NMRI, 20 to 30 g body weight, Iffa, Credo, Belgium).
In the formaldehyde test, according to D. Dubuisson et al., Pain 1977, 4, 161-174 a distinction is drawn between the first (early) phase (0 to 15 minutes after the formaldehyde injection) and the second (late) phase (15 to 60 minutes after the formaldehyde injection). […]
Then, the nociceptive behaviour of the animals is observed and recorded continuously for an investigation period of three minutes in the second (late) phase of the formaldehyde test (21 to 24 minutes after the formaldehyde injection). Quantification of the pain behaviour proceeds by summation of the seconds in which the animals licked and bit the relevant paw during the investigation period.
The comparison is made in each case with control animals, which, instead of compounds according to the invention, received vehicle (0.9% aqueous sodium chloride soln.) before administration of the formaldehyde. On the basis of the quantification of the pain behaviour, the substance effect in the formaldehyde test is determined in percent as a change compared with the corresponding control. […]

VR1/TRPV1 receptor = VR1/TRPV1 receptor (Homo sapiens, UniProt Q8NER1); assay: Inhibition of human VR1/TRPV1 following pH-stimulus; assay type: cell-based; settings: ne = no effect, no response observed
[1] = molecular target: T1, vanilloid receptor (VR1), human VR1 gene (Homo sapiens, UniProt Q8NER1); assay: FLIPR Ca2+ influx assay on CHO K1 cells transfected with the VR1 gene, capsaicin stimulus (Pharmacological method II); assay type: cell-based; settings: human, Ki by Cheng-Prusoff, ne = no effect, no response observed
T1 construct: expressed in transfected cells; host or cells: CHO K1 cells (ECACC), stably transfected
Procedure: In addition, compounds according to the invention of the general formulae I, Ia, Ib, Ic, and Id, may be preferred which in the FLIPR assay with CHO K1 cells, which have been transfected with the human VR1 gene, in a concentration of less than 2000 nM, preferably of less than 1000 nM, particularly preferably of less than 300 nM, very particularly preferably of less than 100 nM, still more preferably of less than 75 nM, further preferably of less than 50 nM and most preferably of less than 10 nM, bring about a 50 percent displacement of capsaicin, which is present in a concentration of 100 nM. In this FLIPR assay, the influx of Ca^2+ is quantified with the assistance of a Ca^2+-sensitive dye (type Fluo-4, Molecular Probes Europe BV, Leiden, Netherlands) in a Fluorescent Imaging Plate Reader (FLIPR, Molecular Devices, Sunnyvale, USA) as described below.
II. Functional Investigations on Vanilloid Receptor (VR1)
The agonistic or antagonistic action of the substances to be investigated on the vanilloid receptor (VR1) may also be determined with the following assay. According to this assay, the influx of Ca^2+ through the channel is quantified with the assistance of a Ca^2+-sensitive dye (type Fluo-4, Molecular Probes Europe BV, Leiden, Netherlands) in a Fluorescent Imaging Plate Reader (FLIPR, Molecular Devices, Sunnyvale, USA).
Chinese hamster ovary cells (CHO K1 cells, European Collection of Cell Cultures (ECACC), Great Britain) are stably transfected with the VR1 gene. For functional investigations, these cells are plated out onto poly-D-lysine-coated, black 96-hole plates with a clear base (BD Biosciences, Heidelberg, Germany) at a density of 25,000 cells/hole. The cells are incubated overnight at 37° C. and 5% CO2 in a culture medium (Ham's Nutrient Mixture F12, 10 vol. % FCS (foetal calf serum), 18 μg/mL L-proline). On the following day, the cells are incubated with Fluo-4 (Fluo-4 2 μM, Pluronic F127 0.01 vol. %, Molecular Probes in HBSS (Hank's buffered saline solution), Gibco Invitrogen GmbH, Karlsruhe, Germany) for 30 minutes at 37° C. The plates are then washed 3 times with HBSS buffer and, after a further 15 minutes' incubation at room temperature, used for Ca^2+ measurement in the FLIPR. Ca^2+-dependent fluorescence is here measured before and after the addition of the substances to be investigated (wavelength λex=488 nm, λem=540 nm).
Quantification proceeds by measuring the highest fluorescence intensity (FC, fluorescence counts) over time.
The FLIPR protocol consists of 2 additions of substance. The substances to be tested (10 μM) are firstly pipetted onto the cells and Ca^2+ influx is compared with the control (capsaicin 10 μM) (% activation relative to the Ca^2+ signal after addition of 10 μM of capsaicin). After 5 minutes' incubation, 100 nM of capsaicin are added and the influx of Ca^2+ is likewise determined.
The percentage inhibition in comparison with the maximum achievable inhibition with 10 μM capsaicin is calculated.
On the basis of the percentage displacement by different concentrations of the compounds to be tested of the general formula I, IC50 inhibition concentrations which bring about 50% displacement of capsaicin were calculated. Ki values for the test substances were obtained by conversion using the Cheng-Prusoff equation (Cheng, Prusoff; Biochem. Pharmacol. 22, 3099-3108, 1973).

[2] = molecular target: T2, vanilloid receptor 1 (VR1/TRPV1) of the rat species (Rattus norvegicus, UniProt O35433); assay: FLIPR Ca2+ influx assay on rat dorsal root ganglia cells, capsaicin stimulus (Pharmacological method I); assay type: cell-based; settings: Ki by Cheng-Prusoff
T2 construct: The spinal column is removed from decapitated rats; endogenous in cells; host or cells: primary cells dissociated from rat dorsal root ganglia, cultured 2-3 days with NGF
Description: I. Functional Investigation on Vanilloid Receptor 1 (VR1/TRPV1 Receptor)
The agonistic or antagonistic action of the substances to be investigated on the vanilloid receptor 1 (VR1/TRPV1) of the rat species may be determined with the following assay. According to this assay, the influx of Ca^2+ through the receptor channel is quantified with the assistance of a Ca^2+-sensitive dye (type Fluo-4, Molecular Probes Europe BV, Leiden, Netherlands) in a Fluorescent Imaging Plate Reader (FLIPR, Molecular Devices, Sunnyvale, USA).
Complete medium: 50 mL HAMS F12 Nutrient Mixture (Gibco Invitrogen GmbH, Karlsruhe, Germany) with 10 vol. % FCS (foetal calf serum, Gibco Invitrogen GmbH, Karlsruhe, Germany, heat-inactivated); 2 mM L-glutamine (Sigma, Munich, Germany); 1 wt. % AA solution (antibiotic/antimycotic solution, PAA, Pasching, Austria) and 25 ng/ml NGF medium (2.5 S, Gibco Invitrogen GmbH, Karlsruhe, Germany)
Cell culture plate: poly-D-lysine-coated, black 96-hole plates with clear base (96 well black/clear plate, BD Biosciences, Heidelberg, Germany) are additionally coated with laminin (Gibco Invitrogen GmbH, Karlsruhe, Germany), by diluting laminin to a concentration of 100 μg/mL with PBS (Ca—Mg-free PBS, Gibco Invitrogen GmbH, Karlsruhe, Germany). Aliquots with a concentration of 100 μg/mL of laminin are taken and stored at −20° C. The aliquots are diluted with PBS in the ratio of 1:10 to 10 μg/mL of laminin and 50 μL of the solution is pipetted into each well of the cell culture plate. The cell culture plates are incubated for at least two hours at 37° C., the supernatant solution is aspirated and the wells are each washed twice with PBS. […]
The spinal column is removed from decapitated rats and this is placed directly in cold HBSS buffer (Hank's buffered saline solution, Gibco Invitrogen GmbH, Karlsruhe, Germany), i.e. located in an ice bath, combined with 1 vol. % (percent by volume) of an AA solution (antibiotic/antimycotic solution, PAA, Pasching, Austria). […] The resultant pellet is in each case redissolved in 250 μL of complete medium and the cell count is determined. […]

T2 sequence (O35433 whole entry): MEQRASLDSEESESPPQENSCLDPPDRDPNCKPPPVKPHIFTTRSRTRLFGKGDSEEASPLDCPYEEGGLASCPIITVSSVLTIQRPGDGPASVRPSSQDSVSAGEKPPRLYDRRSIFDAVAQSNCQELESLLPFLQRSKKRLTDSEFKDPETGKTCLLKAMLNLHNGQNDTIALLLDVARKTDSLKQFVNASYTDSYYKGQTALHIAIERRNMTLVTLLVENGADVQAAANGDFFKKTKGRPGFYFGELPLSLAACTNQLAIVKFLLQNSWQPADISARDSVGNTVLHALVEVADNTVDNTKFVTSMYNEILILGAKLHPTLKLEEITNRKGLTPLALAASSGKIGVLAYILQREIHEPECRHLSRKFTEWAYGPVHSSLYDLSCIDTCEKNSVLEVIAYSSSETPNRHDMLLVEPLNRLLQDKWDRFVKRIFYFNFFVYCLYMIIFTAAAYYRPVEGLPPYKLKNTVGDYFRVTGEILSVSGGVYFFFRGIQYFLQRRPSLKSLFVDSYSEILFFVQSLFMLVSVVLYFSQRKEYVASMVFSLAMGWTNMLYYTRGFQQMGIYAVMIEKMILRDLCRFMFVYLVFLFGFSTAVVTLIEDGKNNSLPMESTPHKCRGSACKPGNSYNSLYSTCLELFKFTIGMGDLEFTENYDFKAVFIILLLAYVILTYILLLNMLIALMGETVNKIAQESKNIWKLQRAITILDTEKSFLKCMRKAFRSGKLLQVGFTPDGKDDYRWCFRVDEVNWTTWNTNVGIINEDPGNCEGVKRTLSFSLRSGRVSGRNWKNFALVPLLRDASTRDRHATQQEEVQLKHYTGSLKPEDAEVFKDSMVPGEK
Sequence of VR1/TRPV1 receptor (Q8NER1 whole entry): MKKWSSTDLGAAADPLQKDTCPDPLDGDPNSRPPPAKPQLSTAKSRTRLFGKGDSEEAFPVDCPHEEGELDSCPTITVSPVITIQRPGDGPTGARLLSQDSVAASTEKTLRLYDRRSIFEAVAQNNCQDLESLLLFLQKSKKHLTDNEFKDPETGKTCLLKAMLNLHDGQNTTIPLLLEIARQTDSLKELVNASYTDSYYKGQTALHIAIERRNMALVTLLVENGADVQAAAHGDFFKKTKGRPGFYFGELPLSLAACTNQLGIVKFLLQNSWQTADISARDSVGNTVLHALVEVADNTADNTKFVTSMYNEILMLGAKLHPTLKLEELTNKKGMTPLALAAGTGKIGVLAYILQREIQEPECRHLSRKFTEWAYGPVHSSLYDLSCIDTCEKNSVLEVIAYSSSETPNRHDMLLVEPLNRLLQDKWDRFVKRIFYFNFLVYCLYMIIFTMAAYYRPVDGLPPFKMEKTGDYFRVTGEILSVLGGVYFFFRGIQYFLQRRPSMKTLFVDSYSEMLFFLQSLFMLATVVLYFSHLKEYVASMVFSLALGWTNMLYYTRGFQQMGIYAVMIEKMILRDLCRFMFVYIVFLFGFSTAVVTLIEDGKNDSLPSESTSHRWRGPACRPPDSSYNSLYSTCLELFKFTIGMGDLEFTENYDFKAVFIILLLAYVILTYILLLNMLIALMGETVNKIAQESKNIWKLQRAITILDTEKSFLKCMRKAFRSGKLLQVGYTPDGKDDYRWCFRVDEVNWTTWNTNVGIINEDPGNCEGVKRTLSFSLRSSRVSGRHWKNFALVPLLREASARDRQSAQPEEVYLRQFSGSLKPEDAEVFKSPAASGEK
T1 sequence (Q8NER1 whole entry): as above

Compound	Inhibition Formaldehyde test (male mice (NMRI))	IC50 (Human) following pH-stimulus (VR1/TRPV1 receptor)	Ki [1] [nM]	Ki [2] [nM]
CC1CCN(c2nc(C(F)(F)F)ccc2CNC(=O)C(C)c2ccc3[nH]cnc3c2)CC1 (stereo not drawn) [Example 13, 2-(1H-benzoimidazol-5-yl)-N-(4-methyl-6′-trifluoromethyl-3,4,5,6-tetrahydro-2H-[1,2′]bipyridinyl-3′-ylmethyl)-propionamide]	0.3 per os 25%	Ne	7	–
CCCCOc1nc(C(C)(C)C)ccc1CNC(=O)C(C)c1ccc2[nH]cnc2c1 (stereo not drawn) [Example 23, 2-(1H-benzoimidazol-5-yl)-N-(2-butoxy-6-tert.-butyl-pyridin-3-ylmethyl)-propionamide]	0.3 per os 13%	Ne	15.3	–
CC1CCN(c2nc(C(F)(F)F)ccc2CNC(=O)Cc2ccc3c(c2)OCCO3)CC1 [Example 58, 2-(2,3-dihydrobenzo[b][1,4]dioxin-6-yl)-N-((2-(4-methylpiperidin-1-yl)-6-(trifluoromethyl)pyridin-3-yl)methyl)acetamide]	–	ne	27.8	60
O=C(Cc1ccc2c(c1)OCCO2)NCc1ccc(C(F)(F)F)nc1SC1CCCCC1 [Example 59, N-((2-(cyclohexylthio)-6-(trifluoromethyl)pyridin-3-yl)methyl)-2-(2,3-dihydrobenzo[b][1,4]dioxin-6-yl)acetamide]	–	ne	3.5	5.7
CC1CCN(c2nc(C(F)(F)F)ccc2CNC(=O)C(C)c2ccc3c(c2)OCO3)CC1 (stereo not drawn) [Example 60, 2-(benzo[d][1,3]dioxol-5-yl)-N-((2-(4-methylpiperidin-1-yl)-6-(trifluoromethyl)pyridin-3-yl)methyl)propanamide]	–	ne	26	45.8
